Experimental data as given in US10940126B2, “Inhibition of IL-8 in the treatment of pain and/or bone loss” (priority 2015, dated 2021).
Entries after “also recorded” stand apart in the source; their conditions may differ.

Experiments:
[1] = cited from earlier work
neutrophil recruitment = conditions: cited from earlier work
[2] = in vivo; cited from earlier work
CXCR2 = biological target: T1, CXCR2 (Homo sapiens, UniProt P25025); conditions: relative to SB225002; cited from earlier work
T1 sequence (P25025 1-360): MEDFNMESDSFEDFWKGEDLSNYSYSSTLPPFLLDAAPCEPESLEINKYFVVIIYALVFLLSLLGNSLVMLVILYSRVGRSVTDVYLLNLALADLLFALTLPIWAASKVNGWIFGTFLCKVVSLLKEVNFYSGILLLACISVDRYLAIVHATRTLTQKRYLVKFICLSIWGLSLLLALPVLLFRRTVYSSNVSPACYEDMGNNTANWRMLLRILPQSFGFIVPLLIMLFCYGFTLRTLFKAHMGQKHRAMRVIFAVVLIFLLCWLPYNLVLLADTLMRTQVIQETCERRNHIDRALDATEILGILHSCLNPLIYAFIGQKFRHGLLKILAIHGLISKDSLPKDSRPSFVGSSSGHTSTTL

mice [3] = assay: Mechanical hypersensitivity: von Frey filaments, 50% withdrawal threshold of hind paws; type: in vivo
mice [4] = assay: Cold sensitivity, acetone drop on hind paw; type: in vivo; conditions: mice i.v. monoclonal ACPA D10 and B2; reparixin 30 mg/kg/day s.c. six days; day 19
Description: To assess sensitivity to cold, the mice were placed in the same testing device as used for detection of mechanical hypersensitivity. After habituation, a 1 ml syringe was used to gently apply a drop of acetone to the plantar surface of the hind paw and the duration of the nocifensive behavior (lifting, shaking, biting, and licking the paw) was recorded. The test was repeated three times on each paw and the average was calculated.

ankle joints and tibia = assay: Joint histology and micro-CT (synovitis, bone erosion, cartilage); type: in vivo; conditions: mice
mice [5] = assay: Heat sensitivity, modified Hargreaves box; type: in vivo; conditions: mice i.v. monoclonal ACPA D10 and B2; reparixin 30 mg/kg/day s.c. six days; tested day 26
Excerpt: Heat sensitivity was examined using a modified Hargreaves box ([…]. et al., 1997). Mice were placed individually in Plexiglas cubicles on the glass surface and allowed to habituate. A radiant heat stimulus was then applied from below to a hind paw until a motion sensor detects a brisk withdrawal and stops the stimulus. Elapsed time is automatically recorded with a cutoff at 20 seconds. Three measurements from each paw were averaged and presented as latency (in seconds) for the withdrawal.

osteoclasts = assay: Osteoclast activation under IL-8 receptor blockade; conditions: blockade of IL-8 receptors
[6] = system: Cxcl1, Cxcl2 and other inflammatory factor mRNA; assay: Quantitative real-time PCR of ankle joint and plantar paw skin mRNA; type: in vivo, mice; conditions: hD10/B02 mAb 1 mg each; zoledronate 100 ug/kg
Description: Ankle joints and plantar paw skin of the hind legs were processed for gene expression analysis. Muscle and tendons were removed from ankle joints, which were then snap frozen and pulverized. Tissues were sonicated in TRIzol (Invitrogen) and RNA was extracted according to manufacturer's protocol. After complementary DNA (cDNA) synthesis, quantitative real-time PCR (Applied Biosystems) was performed using hydrolysis probes to determine the relative messenger RNA (mRNA) levels. Primers for chemokines Ccl2 (MCP1, Mm00441242_m1), Cxcl1 (Mm04207460_m1), Cxcl2 (Mm00436450_m1), Cxcl5 (Mm00436451_g1), inflammatory cytokines Tnf (Mm00443258_m1), Il1b (Mm00434228_m1), Il6 (Mm00446190_m1), mast cell proteases Mcpt4 (Mcp4, Mm00487636-g1), Tpsb2 (Mcp6, Mm01301240-g1), pro-inflammatory enzyme Cox2 (Mm00478374_m1), matrix metallo proteases Mmp2 (Mm00439498_m1), Mmp9 (Mm00442991_m1), Mmp13 (Mm00439491-m1), and reference gene Hprt1 (Mm01545399_m1) (all from Applied Biosystems) were used to determine threshold cycle values to calculate the number of cell equivalents in each sample with the standard curve method. Data was normalized to Hprt1 values and expressed as relative expression units (REU).

RA synovial fibroblasts = conditions: cited from earlier work
[7] = mice injected with hG09 or hC03, thresholds at baseline, 1.5, 3 and 6 hours

C[C@H](CO)Nc1nc(SCc2cccc(F)c2F)nc2[nH]c(=O)sc12 [AZD-8309, 5-[[(2,3-Difluorophenyl)methyl]thio]-7-[[(1R)-2-hydroxy-1-methylethyl]amino]-thiazolo[4,5-d]pyrimidin-2(3H)-one]
Tolerability in clinical trials ([1]; human, in vivo): well tolerated

C[C@@H](C(N)=O)c1ccc(OS(=O)(=O)C(F)(F)F)cc1 [DF2162, 4-[(1R)-2-amino-1-methyl-2-oxoethyl]phenyl trifluoromethane sulfonate]
CXCL1 and carrageenan-induced pain-like behavior (neutrophil recruitment; mice): blocked | Neutrophil recruitment induced by injection of CXCL1 or carrageenan to the paw (neutrophil recruitment; mice): inhibits neutrophil recruitment | Nociceptor sensitization (neutrophil recruitment; mouse, in vivo): does not directly affect nociceptor sensitization | Results in pre-clinical studies of adjuvant-induced polyarthritis and bleomycin-induced pulmonary inflammation and fibrosis [2]: promising results

O=C(Nc1ccc(Cl)c(S(=O)(=O)N2CCNCC2)c1O)Nc1cccc(F)c1Cl [SB656933, 1-(2-chloro-3-fluorophenyl)-3-(4-chloro-2-hydroxy-3-piperazin-1-ylsulfonylphenyl)urea]
Potency as CXCR2 antagonist (CXCR2): same potency as SB225002 | Tolerability in clinical trials ([1]; human, in vivo): well tolerated at all doses

CC[C@@H](Nc1c(Nc2cccc(C(=O)N(C)C)c2O)c(=O)c1=O)c1ccc(C)o1 [SCH527123, 2-hydroxy-N,N-dimethyl-3-[[2-[[1(R)-(5-methyl-2-furanyl)propyl]amino]-3,4-dioxo-1-cyclobuten-1-yl]amino]benzamide]
Adverse events in clinical trials ([1]; human, in vivo): no treatment-induced adverse events were observed | Severe asthma ([1]; oral, clinical trials): modest improvement | Sputum neutrophils ([1]; oral, clinical trials): reduction in sputum neutrophils

O=C(O)Cc1ccccc1Nc1c(Cl)cccc1Cl [diclofenac]
Pain measured as withdrawal threshold, effect of painkiller (mice [3]; mice injected with hC03 and hB09G09, diclofenac 30 mg/kg, observed during 6 hours): apparent lack of effect

NCC1(CC(=O)O)CCCCC1 [gabapentin]
Pain measured as withdrawal threshold, effect of painkiller (mice [3]; [7]): apparent lack of effect; also recorded: no detectable effect on pain

COc1ccc2cc([C@H](C)C(=O)O)ccc2c1 [naproxen]
Pain measured as withdrawal threshold, effect of painkiller (mice [3]; [7]): apparent lack of effect; also recorded: no detectable effect on pain

CC(C)Cc1ccc([C@@H](C)C(=O)NS(C)(=O)=O)cc1 [reparixin, (2R)-2-[4-(2-methylpropyl)phenyl]-N-methylsulfonylpropanamide]
ACPA-induced sensitivity to cold, effect of treatment (mice [4]): attenuated sensitivity to cold | ACPA-induced mechanical hypersensitivity, effect of treatment (mice [3]; mice i.v. monoclonal ACPA D10 and B2 (1 mg each), reparixin 30 mg/kg/day s.c. six consecutive days starting day 6, vs saline controls): partially reversed | Tactile thresholds in naive mice (mice [3]; naive mice not injected with ACPAs, treatment for six days): did not affect tactile thresholds | Pain measured as withdrawal threshold, effect of treatment (mice [3]; pain induced by human monoclonal ACPA hC03 (hG09 control), reparixin 30 mg/kg once a day starting day 1): attenuating effects | Bone destruction induced by injected ACPA (ankle joints and tibia): completely reversed | ACPA-induced heat hypersensitivity, effect of treatment (mice [5]): partially reversed | Activation of osteoclasts (osteoclasts): blocks the activation of osteoclasts

O=P(O)(O)C(O)(Cn1ccnc1)P(=O)(O)O [zoledronate]
ACPA induced pain measured as withdrawal threshold, effect of osteoclast inhibitor (mice [3]; hD10/hB02 mAb 1 mg each, zoledronate for 10 days): dose-dependent effect; also recorded: dose dependent effect | ACPA-induced increase of CXCL1 mRNA in the ankle joint [6]: efficiently prevented

epigallocatechin-3-gallate [EGCG]
Induction of IL-8 production (RA synovial fibroblasts): inhibited the induction of IL-8 production
